Data taken from article PMC3108148 (Journal of medicinal chemistry, 2011).
One block for each compound: values may come before it.

What was measured:
XIAP linker-BIR2-BIR3 [1] = target: T1, XIAP linker-BIR2-BIR3 (Homo sapiens, UniProt P98170); test: Cell-free caspase-3/7 functional assay; conditions: compound 60 μM; XIAP linker-BIR2-BIR3 20 nM
[2] = tested on: PARP cleavage and caspase-3 processing in MDA-MB-231 cells; test: Western blot analysis of PARP cleavage and caspase-3 processing; type: cell-based, human; conditions: 24 h; for concentration causing PARP cleavage / concentration causing caspase-3 processing: MDA-MB-231, Western blot; for caspase-3 processing and PARP cleavage: 30 nM, MDA-MB-231
[3] = target: cIAP1 in MDA-MB-231 cells (Homo sapiens, UniProt Q13490); conditions: 24 h, MDA-MB-231, Western blot
[4] = target: XIAP L-BIR2-BIR3 (residues 120–356) (Homo sapiens, UniProt P98170); conditions: relative to 15; cited from earlier work
[5] = target: cIAP-1 BIR3 (residues 253–363) (Homo sapiens, UniProt Q13490); conditions: relative to 15; cited from earlier work
[6] = target: cIAP-2 BIR3 (residues 238–349) (Homo sapiens, UniProt Q13489); conditions: relative to 15; cited from earlier work
MDA-MB-231 xenograft [7] = conditions: 5 mg/kg, mice; cited from earlier work
[8] = tested on: subset of human cancer cell lines; conditions: cited from earlier work
XIAP linker-BIR2-BIR3 [9] = target: T1, XIAP linker-BIR2-BIR3; test: Cell-free caspase-9 functional assay; type: biochemical; conditions: compound as high as 100 μM; XIAP 500 nM
Solubility = type: physicochemical
MDA-MB-231 xenograft [10] = conditions: SCID mice; 27 at 1 or 5 mg/kg i.v.; Taxotere […] i.v. days 2 and 9

caspase-3/7 activity restored (XIAP linker-BIR2-BIR3 [1]): 40%
SMILES: CN[C@@H](C)C(=O)N[C@H]1CCCC[C@H]2CC[C@@H](C(=O)NC(c3ccccc3)c3ccccc3)N2C1=O [Compound 15]

SMILES: CN[C@@H](C)C(=O)N[C@H]1CCCC[C@H]2CC[C@@H](C(=O)N[C@@H](c3ccccc3)c3cn(CCCCc4ccc(CCCCn5cc([C@@H](NC(=O)[C@@H]6CC[C@@H]7CCCC[C@H](NC(=O)[C@H](C)NC)C(=O)N76)c6ccccc6)nn5)cc4)nn3)N2C1=O [Compound 16]
concentration causing PARP cleavage [2]: 3 nM
concentration causing caspase-3 processing [2]: 3 nM
concentration inducing clear/robust cIAP1 degradation [3]: 1 nM
times more potent than 15 in binding to XIAP containing both BIR2 and BIR3 domains [4]: > 100 times
times more potent than 15 in binding to cIAP1 BIR3 protein [5]: 10 times
times more potent than 15 in binding to cIAP2 BIR3 protein [6]: 10 times
antitumor effect in MDA-MB-231 xenograft model (MDA-MB-231 xenograft [7]): tumor regression
concentrations effectively inducing apoptosis and inhibiting cell growth (as low as) [8]: 1 to 10 nM
times more potent than 15 in inducing apoptosis and inhibiting cell growth [8]: 100 times

restoration of caspase-9 activity (XIAP linker-BIR2-BIR3 [9]): fails to restore any caspase-9 activity
SMILES: CC(=O)N[C@@H](Cc1c[nH]c2ccccc12)C(=O)N[C@H]1CCCC[C@H]2CC[C@@H](C(=O)N[C@@H](c3ccccc3)c3cn(CCCCc4ccc(CCCCn5cc([C@@H](NC(=O)[C@@H]6CC[C@@H]7CCCC[C@H](NC(=O)[C@H](Cc8c[nH]c9ccccc89)NC(C)=O)C(=O)N76)c6ccccc6)nn5)cc4)nn3)N2C1=O [Compound 17]

SMILES: CN[C@@H](C)C(=O)N[C@H]1CCCC[C@H]2CC[C@@H](C(=O)N[C@@H](c3ccccc3)c3cn(Cc4ccc(Cn5cc([C@@H](NC(=O)[C@@H]6CC[C@@H]7CCCC[C@H](NC(=O)[C@H](C)NC)C(=O)N76)c6ccccc6)nn5)cc4)nn3)N2C1=O [Compound 18, (S,3S,3′S,6S,6′S,10aS,10a′S)-N,N′-((1S,1′S)-(1,1′-(1,4-phenylenebis(methylene))bis(1H-1,2,3-triazole-4,1-diyl))bis(phenylmethylene))bis(6-((S)-2-(methylamino)propanamido)-5-oxodecahydropyrrolo[1,2-a]azocine-3-carboxamide)]
caspase-3 processing and PARP cleavage [2]: fail to induce caspase-3 processing and PARP cleavage

SMILES: CN[C@@H](C)C(=O)N[C@H]1CCCC[C@H]2CC[C@@H](C(=O)N[C@@H](c3ccccc3)c3cn(CCc4ccc(CCn5cc([C@@H](NC(=O)[C@@H]6CC[C@@H]7CCCC[C@H](NC(=O)[C@H](C)NC)C(=O)N76)c6ccccc6)nn5)cc4)nn3)N2C1=O [Compound 19, (S,3S,3′S,6S,6′S,10aS,10a′S)-N,N′-((1S,1′S)-(1,1′-(1,4-phenylenebis(ethane-2,1-diyl))bis(1H-1,2,3-triazole-4,1-diyl))bis(phenylmethylene))bis(6-((S)-2-(methylamino)propanamido)-5-oxodecahydropyrrolo[1,2-a]azocine-3-carboxamide)]
caspase-3 processing and PARP cleavage [2]: fail to induce caspase-3 processing and PARP cleavage

SMILES: CN[C@@H](C)C(=O)N[C@H]1CCCC[C@H]2CC[C@@H](C(=O)N[C@@H](c3ccccc3)c3cn(CCCc4ccc(CCCn5cc([C@@H](NC(=O)[C@@H]6CC[C@@H]7CCCC[C@H](NC(=O)[C@H](C)NC)C(=O)N76)c6ccccc6)nn5)cc4)nn3)N2C1=O [Compound 20, (S,3S,3′S,6S,6′S,10aS,10a′S)-N,N′-((1S,1′S)-(1,1′-(1,4-phenylenebis(propane-3,1-diyl))bis(1H-1,2,3-triazole-4,1-diyl))bis(phenylmethylene))bis(6-((S)-2-(methylamino)propanamido)-5-oxodecahydropyrrolo[1,2-a]azocine-3-carboxamide)]
concentration causing PARP cleavage [2]: 3 nM
concentration causing caspase-3 processing [2]: 10 nM

SMILES: CN[C@@H](C)C(=O)N[C@H]1CCCC[C@H]2CC[C@@H](C(=O)N[C@@H](c3ccccc3)c3cn(CCCCCCc4ccc(CCCCCCn5cc([C@@H](NC(=O)[C@@H]6CC[C@@H]7CCCC[C@H](NC(=O)[C@H](C)NC)C(=O)N76)c6ccccc6)nn5)cc4)nn3)N2C1=O [Compound 21, (S,3S,3′S,6S,6′S,10aS,10a′S)-N,N′-((1S,1′S)-(1,1′-(1,4-phenylenebis(hexane-6,1-diyl))bis(1H-1,2,3-triazole-4,1-diyl))bis(phenylmethylene))bis(6-((S)-2-(methylamino)propanamido)-5-oxodecahydropyrrolo[1,2-a]azocine-3-carboxamide)]
concentration causing PARP cleavage [2]: 3 nM
concentration causing caspase-3 processing [2]: 3 nM

SMILES: CN[C@@H](C)C(=O)N[C@H]1CCCC[C@H]2CC[C@@H](C(=O)N[C@@H](c3ccccc3)c3cn(CCCCCOCCCCCn4cc([C@@H](NC(=O)[C@@H]5CC[C@@H]6CCCC[C@H](NC(=O)[C@H](C)NC)C(=O)N65)c5ccccc5)nn4)nn3)N2C1=O [Compound 27, (S,3S,3′S,6S,6′S,10aS,10a′S)-N,N′-((1S,1′S)-(1,1′-(oxybis(pentane-5,1-diyl))bis(1H-1,2,3-triazole-4,1-diyl))bis(phenylmethylene))bis(6-((S)-2-(methylamino)propanamido)-5-oxodecahydropyrrolo[1,2-a]azocine-3-carboxamide)]
solubility (Solubility): excellent solubility
weight loss / signs of toxicity (MDA-MB-231 xenograft [10]): no signs of toxicity
